{
  "source": "patent US20220155322A1",
  "about": "“USE OF NATRIURETIC PEPTIDES TO ASSESS AND TREAT ACUTE KIDNEY INJURY” (Mayo Foundation for Medical Education and Research, priority 2019, published 2022)",
  "key": {"[1]": {"test_system": "Caspase7 gene", "experiment": "Caspase7 real time PCR in H/R HRPTC", "format": "cell-based, human", "conditions": "H/R with 10^−6 M CRRL269, H/R alone 1.89 fold, normalized to B2M", "method": "Apoptosis Pathway PCR Array and Caspase7 Real Time PCR: Two groups of HRPTC (vehicle and 10^−6 M CRRL269) that underwent oil induced H/R, and a negative control (Neg Ctrl) group with no H/R stress, were cultured in 6-well plates as described above, and total RNA was collected using the Trizol method (Thermo Fisher Scientific; Waltham, Mass.). RNA was reverse transcribed for cDNA for PCR RT2 array experiments. Apoptosis pathway PCR array (Qiagen; Germantown, Md.) was conducted using the SYBR green (Bio-Rad Laboratories; Hercules, Calif.) method in a Lightcycler 480 (Roche Diagonostics; Indianapolis, Ind.). Raw data were analyzed with the online Qiagen RT2 PCR analysis program. […] A Caspase7 RT-PCR primer (PPH00110C-200, Qiagen) was obtained, and RT-PCR reactions were performed using the SYBR green method in a Lightcycler 480. The B2M gene (primer PPH01094E, Qiagen) was used for normalization."}, "[2]": {"test_system": "human primary aortic vascular smooth muscle cells (HASMC)", "experiment": "Intracellular calcium under ANGII stimulation (Fura-2)", "format": "cell-based", "method": "Measurements of Intracellular Calcium in Vascular Smooth Muscle Cells: HASMC (ScienCell Research Laboratories; Carlsbad, Calif.) were cultured and maintained as instructed by the manufacturer. Cells at passage 4 or 5 were used for experiments. Calcium imaging was performed as described elsewhere (Chai et al., Cardiovasc Res, 100:151-159, 2013). Briefly, cells were seeded on a 25 mm round cover glass (Fisher Scientific; Pittsburgh, Pa.) at a density of 5×10^4 cells per slide. The slides had been pretreated with 0.5 N NaOH for 8 hours, rinsed with water, and sterilized before use. After overnight culturing, the slides with cells were assembled in a MS-02 Chamber (ALA Scientific Instrument; Farmingdale, N.Y.) and loaded with 3 μM fura-2 AM (Invitrogen; Carlsbad, Calif.) for 30 minutes in a 37° C. incubator. The chamber was then placed on the stage of an inverted Olympus IX71 microscope (Olympus America Inc.; Waltham, Mass.). The cells were maintained in 1 mL HASMC medium and treated with or without ANP, BNP, or CRRL269 at concentration of 10^−9 or 10^−7 M for 5 minutes before perfused with 5 mL medium containing ANGII (10^−8 or 10^−7 M). Intracellular Ca2^+ fluorescence signals were measured as a ratio of fluorescence intensities at 510 nm from excitations of 340/380 nm, using a Hamamatsu ORCA-R2 CCD camera with a Sutter LB-LS/17 light source. Baseline fluorescence was recorded after 5 minutes of treatment, and fluorescence images were acquired continuously during the ANGII perfusion. Background fluorescence was subtracted and the calcium signal (F) was normalized to baseline fluorescence (FO) and expressed as a ratio (F/FO) using MetaFluor software (Olympus America Inc.)."}, "[3]": {"test_system": "human primary renal proximal tubular epithelial cells (HRPTC)", "experiment": "Oil immersion induced hypoxia/reoxygenation (H/R) apoptosis, Caspase 3/7 IncuCyte live imaging", "format": "cell-based", "design": "apoptotic signals in HRPTC after H/R: dose or concentration left out as unconfirmed", "method": "Oil Immersion Induced Hypoxia/Reoxygenation in vitro: HRPTC (ScienCell Research Laboratories; Carlsbad, Calif.) were seeded in 96-well plates and cultured for 1 day until 70-80% confluence. Passages 3-5 were used for experiments. Caspase 3/7 green apoptosis assay agent (Essen BioScience; Ann Arbor, Mich.) was added to the culture medium for detection of apoptosis. Plates were then transferred to a time-lapsed, live imaging system IncuCyte (Essen BioScience) for apoptosis monitoring for a total of 24 hours. H/R in cells was mimicked with mineral oil (Sigma, St Louis, Mo.) immersion (Meldrum et al., J Surg Res, 99:288-293, 2001). Cells were immersed in oil for 2 hours, washed twice, and placed in fresh medium containing vehicle (H/R group) or drugs. ANP, BNP, and CRRL269 were used at concentrations of 10^−8, 10^−7, or 10^−6 M. PKG (an important cGMP binding protein) activating analogue 8-pCPT-cGMP (Sigma; St. Louis, Mo.), which is specific for PKG and has low affinity for phosphodiesterases, was used at concentrations of 10^−6, 10^−5, or 10^−4 M. Cells were treated with 10^−6-, 5×10^−6-, or 1.5×10^−5 M PKG inhibitor KT-5823 (Abcam; Cambridge, Mass.) for 30 minutes before 10^−6 M CRRL269 was added. Cells without H/R stimulation were labeled as the negative control (Neg Ctrl) group. Apoptosis signals (e.g., apoptosis object counts) were analyzed with software provided by IncuCyte."}, "[4]": {"test_system": "ischemic AKI model in normal mongrel canines", "experiment": "CNP levels (RIA) and renal NPPC mRNA (RT-PCR) in canine AKI", "format": "in vivo"}, "[5]": {"conditions": "HRPTC, H/R, 10^−8, 10^−7 or 10^−6 M"}},
  "note": "Positions of bridges follow the written chain, without caps; N, C: chain ends. Residues, ends and D or L forms follow the SMILES beside them.",
  "data": [
    {"smiles": "CC[C@H](C)[C@@H]1NC(=O)[C@H](CCCNC(=N)N)NC(=O)[C@H](CC(=O)O)NC(=O)[C@H](CCSC)NC(=O)[C@H](CCCCN)NC(=O)[C@H](CCCNC(=N)N)NC(=O)CNC(=O)[C@H](Cc2ccccc2)NC(=O)[C@@H](NC(=O)[C@H](CO)NC(=O)[C@H](CO)NC(=O)[C@H](CCCNC(=N)N)NC(=O)[C@H](CCCNC(=N)N)NC(=O)[C@H](CC(C)C)NC(=O)[C@H](CO)NC(=O)[C@H](CCCNC(=N)N)NC(=O)[C@@H]2CCCN2C(=O)[C@H](C)NC(=O)[C@@H](N)[C@@H](C)O)CSSC[C@@H](C(=O)N[C@@H](CC(N)=O)C(=O)N[C@@H](CO)C(=O)N[C@@H](Cc2ccccc2)C(=O)N[C@@H](CCCNC(=N)N)C(=O)N[C@@H](Cc2ccc(O)cc2)C(=O)O)NC(=O)CNC(=O)[C@H](CC(C)C)NC(=O)CNC(=O)[C@H](CO)NC(=O)[C@H](CO)NC(=O)[C@H](CO)NC(=O)[C@H](CO)NC1=O", "note": "[CRRL269] (H-TAPRSLRRSSCFGRKMDRISSSSGLGCNSFRY-OH; disulfide 11-27)", "values": [
      {"measurement": "Caspase7 gene expression level (RT-PCR)", "setting": "[1]", "value": 1.25, "unit": "fold"},
      {"measurement": "Ca2^+ suppression relative to ANP and BNP", "setting": "[2]; HASMC, pretreatment at 10^−9 or 10^−7 M, ANGII stimulation", "value": "less Ca2^+ suppression than ANP and BNP"},
      {"measurement": "Ca2^+ enhancement by ANGII in HASMC", "setting": "[2]; pretreatment at 10^−9 or 10^−7 M for 5 minutes, ANGII 10^−8 or 10^−7 M", "value": "suppressed"},
      {"measurement": "apoptotic signals in HRPTC after H/R", "setting": "[3]; CRRL269, compared to H/R group alone", "value": "significantly reduced"},
      {"measurement": "anti-apoptotic effect compared to ANP", "setting": "[3]; [5]", "value": "more robust anti-apototic effects compared to ANP"},
      {"measurement": "anti-apoptotic effect in comparison with BNP", "setting": "[3]; [5]", "value": "trend of superiority"},
      {"measurement": "cortical NPPC gene expression levels (RT-PCR)", "setting": "[4]; AKI canine renal cortex, normalized to GAPDH, vs vehicle", "value": "elevated"},
      {"measurement": "urinary CNP levels", "setting": "[4]; AKI canines, 16.3 pmol/kg/min infusion, compared to vehicle", "value": "increased"}
    ]}
  ]
}
